Experimental data as given in PMC5218480 (PLoS ONE, 2017).

Tested on: MV-4-11 cells
Assay: Gene expression microarray analysis (Affymetrix PrimeView) and GSEA
Format: cell-based, human
Design: RFU PODN (11730768_x_at) / Fold change /veh PODN (11730768_x_at) / RFU LINC00158 (11744669_a_at) / Fold change /veh LINC00158 (11744669_a_at) / RFU DUSP10 (11751237_a_at) / Fold change /veh DUSP10 (11751237_a_at) / RFU ID3 (11757404_x_at) / Fold change /veh ID3 (11757404_x_at) / RFU PLEKHG5 (11737974_s_at) / Fold change /veh PLEKHG5 (11737974_s_at) / RFU LRRC4B (11730491_at) / Fold change /veh LRRC4B (11730491_at) / RFU GIMAP4 (11747438_a_at) / Fold change /veh GIMAP4 (11747438_a_at) / RFU KRT8 (11758183_x_at) / Fold change /veh KRT8 (11758183_x_at) / RFU CNN1 (11734310_a_at) / Fold change /veh CNN1 (11734310_a_at) / RFU VPS37D (11726825_at) / Fold change /veh VPS37D (11726825_at) / RFU C10orf10 (11716522_x_at) / Fold change /veh C10orf10 (11716522_x_at) / RFU KIR2DL2 /// KIR2DL4 /// KIR2DL5A /// KIR2DL5B /// KIR2DS1 /// KIR2DS2 /// KIR2DS3 /// KIR2DS4 /// KIR3DL3 /// KIR3DL3 /// KIR3DS1 (11738374_at) / Fold change /veh KIR2DL2 /// KIR2DL4 /// KIR2DL5A /// KIR2DL5B /// KIR2DS1 /// KIR2DS2 /// KIR2DS3 /// KIR2DS4 /// KIR3DL3 /// KIR3DL3 /// KIR3DS1 (11738374_at) / RFU C1QL1 (11718748_at) / Fold change /veh C1QL1 (11718748_at) / RFU TMPRSS4 (11747572_a_at) / Fold change /veh TMPRSS4 (11747572_a_at) / RFU HAMP (11756126_x_at) / Fold change /veh HAMP (11756126_x_at) / RFU RNFT2 (11725882_a_at) / Fold change /veh RNFT2 (11725882_a_at) / RFU NR4A2 (11747474_a_at) / Fold change /veh NR4A2 (11747474_a_at) / RFU ABCC12 (11746883_a_at) / Fold change /veh ABCC12 (11746883_a_at) / RFU TMEM136 (11760407_x_at) / Fold change /veh TMEM136 (11760407_x_at) / RFU CLDN22 /// WWC2 (11732394_at) / Fold change /veh CLDN22 /// WWC2 (11732394_at) / RFU HLA-DPB1 (11760878_x_at) / Fold change /veh HLA-DPB1 (11760878_x_at) / RFU SPINT1 (11716480_a_at) / Fold change /veh SPINT1 (11716480_a_at) / RFU GAP43 (11754022_s_at) / Fold change /veh GAP43 (11754022_s_at) / RFU A4GNT (11735810_at) / Fold change /veh A4GNT (11735810_at) / RFU PRB3 (11715151_x_at) / Fold change /veh PRB3 (11715151_x_at) / RFU TUBB4B (11761932_at) / Fold change /veh TUBB4B (11761932_at) / RFU CAPN14 (11732068_a_at) / Fold change /veh CAPN14 (11732068_a_at) / RFU TMCC2 (11721928_a_at) / Fold change /veh TMCC2 (11721928_a_at) / RFU IRGQ (11745062_a_at) / Fold change /veh IRGQ (11745062_a_at) / RFU FAM174B (11720279_a_at) / Fold change /veh FAM174B (11720279_a_at) / RFU TMPRSS4 (11748680_a_at) / Fold change /veh TMPRSS4 (11748680_a_at) / RFU FAM212B (11763350_a_at) / Fold change /veh FAM212B (11763350_a_at) / RFU PLEKHG5 (11743358_a_at) / Fold change /veh PLEKHG5 (11743358_a_at) / RFU ZSCAN30 (11745921_a_at) / Fold change /veh ZSCAN30 (11745921_a_at) / RFU CMKLR1 (11741424_a_at) / Fold change /veh CMKLR1 (11741424_a_at) / RFU LOC101060620 /// MAPK8IP1 (11723275_at) / Fold change /veh LOC101060620 /// MAPK8IP1 (11723275_at) / RFU SPTSSB (11747773_x_at) / Fold change /veh SPTSSB (11747773_x_at) / RFU PRSS12 (11739890_at) / Fold change /veh PRSS12 (11739890_at) / RFU BIN1 (11741810_x_at) / Fold change /veh BIN1 (11741810_x_at) / RFU WNT11 (11732464_a_at) / Fold change /veh WNT11 (11732464_a_at) / RFU C10orf10 (11716521_a_at) / Fold change /veh C10orf10 (11716521_a_at) / RFU C5orf56 (11738089_at) / Fold change /veh C5orf56 (11738089_at) / RFU CYB561 (11721691_x_at) / Fold change /veh CYB561 (11721691_x_at) / RFU ANKRD19P (11752326_a_at) / Fold change /veh ANKRD19P (11752326_a_at) / RFU OR2T12 /// OR2T33 /// OR2T8 (11738714_s_at) / Fold change /veh OR2T12 /// OR2T33 /// OR2T8 (11738714_s_at) / RFU VCAN (11748164_a_at) / Fold change /veh VCAN (11748164_a_at) / RFU JSRP1 (11732532_at) / Fold change /veh JSRP1 (11732532_at) / RFU KRTAP10-11 (11738290_x_at) / Fold change /veh KRTAP10-11 (11738290_x_at) / RFU MYO3A (11730013_a_at) / Fold change /veh MYO3A (11730013_a_at) / RFU EBF3 (11725865_a_at) / Fold change /veh EBF3 (11725865_a_at) / RFU CAMK2N1 (11719241_x_at) / Fold change /veh CAMK2N1 (11719241_x_at) / RFU C5orf56 (11738088_a_at) / Fold change /veh C5orf56 (11738088_a_at) / RFU OLFML3 (11715873_a_at) / Fold change /veh OLFML3 (11715873_a_at) / RFU LOC100653217 /// NTM (11731650_a_at) / Fold change /veh LOC100653217 /// NTM (11731650_a_at) / RFU MAPK11 (11762145_a_at) / Fold change /veh MAPK11 (11762145_a_at) / RFU FIZ1 (11724087_x_at) / Fold change /veh FIZ1 (11724087_x_at) / RFU OASL (11726364_x_at) / Fold change /veh OASL (11726364_x_at) / RFU SOX15 (11748057_x_at) / Fold change /veh SOX15 (11748057_x_at) / RFU CD79A (11719716_a_at) / Fold change /veh CD79A (11719716_a_at) / RFU HIST1H1D (11736915_at) / Fold change /veh HIST1H1D (11736915_at) / RFU CASKIN2 (11723855_a_at) / Fold change /veh CASKIN2 (11723855_a_at) / RFU LOC730098 (11760151_x_at) / Fold change /veh LOC730098 (11760151_x_at) / RFU OR4N2 (11742367_at) / Fold change /veh OR4N2 (11742367_at) / RFU PRRT2 (11749266_a_at) / Fold change /veh PRRT2 (11749266_a_at) / RFU SNX32 (11753110_a_at) / Fold change /veh SNX32 (11753110_a_at) / RFU CDHR5 (11726645_a_at) / Fold change /veh CDHR5 (11726645_a_at) / RFU RCAN1 (11760418_a_at) / Fold change /veh RCAN1 (11760418_a_at) / RFU FAM167A (11723789_a_at) / Fold change /veh FAM167A (11723789_a_at) / RFU FAM26E (11764081_at) / Fold change /veh FAM26E (11764081_at) / RFU ISYNA1 (11749810_s_at) / Fold change /veh ISYNA1 (11749810_s_at) / RFU ACY1 (11761880_at) / Fold change /veh ACY1 (11761880_at) / RFU 11764098_at / Fold change /veh 11764098_at / RFU SAMD14 (11745864_x_at) / Fold change /veh SAMD14 (11745864_x_at) / RFU NPB (11741838_a_at) / Fold change /veh NPB (11741838_a_at) / RFU TMPRSS6 (11731388_a_at) / Fold change /veh TMPRSS6 (11731388_a_at) / RFU KRTAP10-2 (11738614_at) / Fold change /veh KRTAP10-2 (11738614_at) / RFU ARHGAP8 /// PRR5-ARHGAP8 (11727945_x_at) / Fold change /veh ARHGAP8 /// PRR5-ARHGAP8 (11727945_x_at) / RFU KRTAP5-7 /// NADSYN1 (11734609_at) / Fold change /veh KRTAP5-7 /// NADSYN1 (11734609_at) / RFU RASL12 (11751679_a_at) / Fold change /veh RASL12 (11751679_a_at) / RFU CDKN2B (11736163_a_at) / Fold change /veh CDKN2B (11736163_a_at) / RFU PRF1 (11729649_at) / Fold change /veh PRF1 (11729649_at) / RFU, ZNF638 /// ZNF638-IT1 / Fold change vs veh, ZNF638 /// ZNF638-IT1 / RFU, PANK3 / Fold change vs veh, PANK3 / RFU, SH3YL1 / Fold change vs veh, SH3YL1 / RFU, ZEB2 / Fold change vs veh, ZEB2 / RFU, NRIP1 / Fold change vs veh, NRIP1 / RFU, PTTG1IP / Fold change vs veh, PTTG1IP / RFU, CAPN2 / Fold change vs veh, CAPN2 / RFU, MED14 / Fold change vs veh, MED14 / RFU, SNORA58 / Fold change vs veh, SNORA58 / RFU, C1orf63 / Fold change vs veh, C1orf63 / RFU, LRRFIP1 / Fold change vs veh, LRRFIP1 / RFU, NDUFAF7 / Fold change vs veh, NDUFAF7 / RFU, SLC12A2 / Fold change vs veh, SLC12A2 / RFU, IBTK / Fold change vs veh, IBTK / RFU, ESF1 / Fold change vs veh, ESF1 / Fold change vs veh, TMEM50B / RFU, TAOK1 / Fold change vs veh, TAOK1 / RFU, ACBD3 / Fold change vs veh, ACBD3 / RFU, TMA16 / Fold change vs veh, TMA16 / RFU, RWDD3 / Fold change vs veh, RWDD3 / RFU, BCAT1 / Fold change vs veh, BCAT1 / RFU, EDEM3 / Fold change vs veh, EDEM3 / RFU, TMEM33 / Fold change vs veh, TMEM33 / RFU, WDR75 / Fold change vs veh, WDR75 / RFU, AHCTF1 / Fold change vs veh, AHCTF1 / RFU, TFRC / Fold change vs veh, TFRC / RFU, ZDHHC17 / Fold change vs veh, ZDHHC17 / RFU, NOM1 / Fold change vs veh, NOM1 / RFU, ARL8B / Fold change vs veh, ARL8B / RFU, ZBTB11 / Fold change vs veh, ZBTB11 / RFU, TAMM41 / Fold change vs veh, TAMM41 / RFU, KIAA1704 /// LOC100996395 / Fold change vs veh, KIAA1704 /// LOC100996395 / RFU, ING1 / Fold change vs veh, ING1 / RFU, TRMT61B / Fold change vs veh, TRMT61B / RFU, FUBP3 / Fold change vs veh, FUBP3 / RFU, TP53 / Fold change vs veh, TP53 / RFU, TNKS2 / Fold change vs veh, TNKS2 / RFU, ZFP14 / Fold change vs veh, ZFP14 / RFU, ACTR2 / Fold change vs veh, ACTR2 / RFU, PPP3R1 / Fold change vs veh, PPP3R1 / RFU, PIK3R1 / Fold change vs veh, PIK3R1 / RFU, HNRNPA1 / Fold change vs veh, HNRNPA1 / RFU, RNF170 / Fold change vs veh, RNF170 / RFU, ZNF28 / Fold change vs veh, ZNF28 / RFU, RNGTT / Fold change vs veh, RNGTT / RFU, OGT / Fold change vs veh, OGT / RFU, BRD1 / Fold change vs veh, BRD1 / RFU, MARS / Fold change vs veh, MARS / RFU, ZNF655 / Fold change vs veh, ZNF655 / RFU, FAHD1 / Fold change vs veh, FAHD1 / RFU, BDP1 / Fold change vs veh, BDP1 / RFU, LRRCC1 / Fold change vs veh, LRRCC1 / RFU, ARID1A / Fold change vs veh, ARID1A / RFU, ZNF146 / Fold change vs veh, ZNF146 / RFU, ZNF330 / Fold change vs veh, ZNF330 / RFU, GPN3 / Fold change vs veh, GPN3 / RFU, C9orf123 / Fold change vs veh, C9orf123 / RFU, N4BP2L2 / Fold change vs veh, N4BP2L2 / RFU, ARFIP1 / Fold change vs veh, ARFIP1 / RFU, FAM179B / Fold change vs veh, FAM179B / RFU, BCL10 / Fold change vs veh, BCL10 / RFU, UHRF1BP1L / Fold change vs veh, UHRF1BP1L / RFU, BET1 / Fold change vs veh, BET1 / RFU, CNOT2 / Fold change vs veh, CNOT2 / RFU, ZNF268 / Fold change vs veh, ZNF268 / Fold change vs veh, ZNF507 / RFU, DGCR2 / Fold change vs veh, DGCR2 / RFU, WDSUB1 / Fold change vs veh, WDSUB1 / Fold change vs veh, HSP90B1 /// MIR3652 / RFU, ADSS / Fold change vs veh, ADSS / RFU, GK / Fold change vs veh, GK / RFU, ZNF148 / Fold change vs veh, ZNF148 / RFU, TAF9 / Fold change vs veh, TAF9 / RFU, SLC1A5 / Fold change vs veh, SLC1A5 / RFU, SLMO2 / Fold change vs veh, SLMO2 / RFU, ABCC4 / Fold change vs veh, ABCC4 / RFU, LOC101060439 /// RAP1B / Fold change vs veh, LOC101060439 /// RAP1B / RFU, RFX7 / Fold change vs veh, RFX7 / RFU, GTPBP10 / Fold change vs veh, GTPBP10 / RFU, CNEP1R1 / Fold change vs veh, CNEP1R1 / RFU, BIVM-ERCC5 /// ERCC5 / Fold change vs veh, BIVM-ERCC5 /// ERCC5 / RFU, ILF3 / Fold change vs veh, ILF3 / RFU 11762660_at / Fold change /veh 11762660_at / RFU VCAN (11757783_s_at) / Fold change /veh VCAN (11757783_s_at) / RFU DDX43 (11728927_at) / Fold change /veh DDX43 (11728927_at) / RFU KRT8 (11758188_x_at) / Fold change /veh KRT8 (11758188_x_at) / RFU NKD1 (11759106_at) / Fold change /veh NKD1 (11759106_at) / RFU SRD5A1 (11742802_a_at) / Fold change /veh SRD5A1 (11742802_a_at) / RFU TPSAB1 /// TPSB2 (11721975_s_at) / Fold change /veh TPSAB1 /// TPSB2 (11721975_s_at) / RFU GSTM3 (11746129_a_at) / Fold change /veh GSTM3 (11746129_a_at) / RFU IL23R (11737362_x_at) / Fold change /veh IL23R (11737362_x_at) / RFU TMEM51 (11727254_a_at) / Fold change /veh TMEM51 (11727254_a_at) / RFU PIWIL2 (11732686_x_at) / Fold change /veh PIWIL2 (11732686_x_at) / RFU ORM1 (11744905_x_at) / Fold change /veh ORM1 (11744905_x_at) / RFU CCDC152 (11743942_at) / Fold change /veh CCDC152 (11743942_at) / RFU ECM1 (11717891_a_at) / Fold change /veh ECM1 (11717891_a_at) / RFU IL23R (11748794_a_at) / Fold change /veh IL23R (11748794_a_at) / RFU TNFAIP8L3 (11732012_x_at) / Fold change /veh TNFAIP8L3 (11732012_x_at) / RFU MBOAT4 (11741988_at) / Fold change /veh MBOAT4 (11741988_at) / RFU 11764193_at / Fold change /veh 11764193_at / RFU TMEM53 (11763286_at) / Fold change /veh TMEM53 (11763286_at) / RFU MAGEB2 (11727129_at) / Fold change /veh MAGEB2 (11727129_at) / RFU TMEM200A (11744735_a_at) / Fold change /veh TMEM200A (11744735_a_at) / RFU CCDC152 (11751479_a_at) / Fold change /veh CCDC152 (11751479_a_at) / RFU FAM211A (11726209_a_at) / Fold change /veh FAM211A (11726209_a_at) / RFU RGS16 (11746705_a_at) / Fold change /veh RGS16 (11746705_a_at) / RFU VCAN (11755009_s_at) / Fold change /veh VCAN (11755009_s_at) / RFU RHOB (11743442_s_at) / Fold change /veh RHOB (11743442_s_at) / RFU RGS16 (11720943_a_at) / Fold change /veh RGS16 (11720943_a_at) / RFU RGS16 (11720944_at) / Fold change /veh RGS16 (11720944_at) / RFU, VPS4B / Fold change vs veh, VPS4B / RFU, CREB1 / Fold change vs veh, CREB1 / RFU, DNAJC13 / Fold change vs veh, DNAJC13 / RFU, GNAQ / Fold change vs veh, GNAQ / RFU, CDK5R1 / Fold change vs veh, CDK5R1 / RFU, ZRANB3 / Fold change vs veh, ZRANB3 / RFU, CUL4A / Fold change vs veh, CUL4A / RFU, CCNY / Fold change vs veh, CCNY / RFU, UFL1 / Fold change vs veh, UFL1 / RFU, COG3 / Fold change vs veh, COG3 / RFU, DIAPH2 / Fold change vs veh, DIAPH2 / RFU, SKA2 / Fold change vs veh, SKA2 / RFU, AFF3 / Fold change vs veh, AFF3 / RFU, LMF1 / Fold change vs veh, LMF1 / RFU, IPO11 / Fold change vs veh, IPO11 / RFU, DFFB / Fold change vs veh, DFFB / RFU, FOXP1 / Fold change vs veh, FOXP1 / RFU, CARD8 / Fold change vs veh, CARD8 / RFU, STRN3 / Fold change vs veh, STRN3 / RFU, ADK / Fold change vs veh, ADK / RFU, RASSF2 / Fold change vs veh, RASSF2 / RFU, WIPF1 / Fold change vs veh, WIPF1 / RFU, LARP1B / Fold change vs veh, LARP1B / RFU, RASA1 / Fold change vs veh, RASA1 / RFU, RB1 / Fold change vs veh, RB1 / RFU, PPFIA1 / Fold change vs veh, PPFIA1 / RFU, MAT2A / Fold change vs veh, MAT2A / RFU, CCT5 / Fold change vs veh, CCT5 / RFU, WDR92 / Fold change vs veh, WDR92 / RFU, CUX1 / Fold change vs veh, CUX1 / RFU, TTC7A / Fold change vs veh, TTC7A / RFU, TMEM135 / Fold change vs veh, TMEM135 / RFU, DEPTOR / Fold change vs veh, DEPTOR / RFU, CPM / Fold change vs veh, CPM / RFU, DNAJB6 / Fold change vs veh, DNAJB6 / RFU, CACNA2D3 / Fold change vs veh, CACNA2D3 / RFU, DTX4 / Fold change vs veh, DTX4 / RFU, TFCP2 / Fold change vs veh, TFCP2 / RFU, GMCL1 /// GMCL1P1 / Fold change vs veh, GMCL1 /// GMCL1P1 / RFU, AEBP2 / Fold change vs veh, AEBP2 / RFU, SNHG1 /// SNORD22 /// SNORD25 /// SNORD26 /// SNORD27 /// SNORD28 /// SNORD29 /// SNORD31 / Fold change vs veh, SNHG1 /// SNORD22 /// SNORD25 /// SNORD26 /// SNORD27 /// SNORD28 /// SNORD29 /// SNORD31 / Fold change (Aza/veh), C12orf56 (ProbeSet 11735607_a_at) / Fold change (ACY-1035/veh), C12orf56 (ProbeSet 11735607_a_at) / Fold change (Aza/veh), FGFR1OP (ProbeSet 11751329_s_at) / Fold change (ACY-1035/veh), FGFR1OP (ProbeSet 11751329_s_at) / Fold change (Aza/veh), VPS36 (ProbeSet 11739960_a_at) / Fold change (ACY-1035/veh), VPS36 (ProbeSet 11739960_a_at) / RFU SYPL1 (11715823_x_at) / Fold change /veh SYPL1 (11715823_x_at) / RFU IGFBP7 (11715501_s_at) / Fold change /veh IGFBP7 (11715501_s_at) / RFU REEP3 (11722064_at) / Fold change /veh REEP3 (11722064_at) / RFU IGLL1 (11728026_x_at) / Fold change /veh IGLL1 (11728026_x_at): dose or concentration left out as unconfirmed
Settings: ProbeSet 11758919_x_at; LIST D

With `Nc1ncn([C@@H]2O[C@H](CO)[C@@H](O)[C@H]2O)c(=O)n1` [azacitidine] the “Fold change vs veh, TFCP2” value was 0.71.
